# Earlier results as cited in publication PMC3838783 (Applied Biochemistry and Biotechnology, 2013).
# System: rats
structure (smiles),measurement,value
CC(=O)NO [acetohydroxyamic acid],Teratogenicity,teratogenic
